Laboratory results as given in patent US20100216661A1, “Diagnostic Assay” (priority 2007, published 2010).
Blank lines part the entries; values can stand above or below the substance they belong to.

Columns and labels:
[1] = tested on: anti-RhE monoclonal antibody E0002; assay: SPOTs membrane hybridisation with anti-RhE monoclonal E0002; assay type: binding, Human; settings: FIG. 9; 36 RhE peptide mimotopes; CPep75 (Spot 37), CPep76 (Spot 38) negative controls
Description: (§1) The peptide mimotopes were synthesised by the SPOT method (Frank; 1992) using F-moc chemistry. The peptides were anchored to an amino-PEG derivatised cellulose membrane (Intavis AG) and synthesised as discrete spots. Synthesis was by stepwise elongation of the peptide chain from C-terminus to the N-terminus, by manual pipetting of the respective amino acids, according to the Sigma Genosys protocol. Incubation times were modified when using Intavis AG membranes. After addition of the final amino acid, the terminal residues and side chains of the peptides were deprotected and the membrane was washed with methanol; air dried and then stored at −20° C. prior to use.
(§2) A membrane was placed in a 50 ml Falcon tube and blocked overnight at 4° C. with gentle agitation in TBS/0.25% Tween 20/5% skimmed milk powder. A 2 μg/ml dilution of the primary (1°) antibody (monoclonal or polyclonal) was prepared in TBS/0.25% Tween20/5% skimmed milk powder before incubation with the membrane for 1 hour at room temperature on a spiral rotor. Following 4 washes, each for 5 minutes with 20 ml of TBS/0.25% Tween20, the membrane was incubated for 1 hour at room temperature with a 1/5000 dilution of the secondary (2°) antibody, prepared in TBS/0.25% Tween20/5% skimmed milk powder. Peroxidase labelled rabbit anti-mouse IgG (Sigma) was used for the detection of the murine anti-Fy^a (LM487) and anti-Fy^b (LM447) 1° antibodies and peroxidase labelled goat anti-human IgG (Pharmacia) for the detection of the human 1° antibodies. Following 4 washes, each for 5 minutes with 20 ml of TBS/0.25% Tween20, the membrane was blotted to remove excess fluid. Bound antibody was detected by chemiluminescence. ECL detection reagents (Amersham Biosciences) were mixed and overlaid on the membrane for 2 minutes. The chemiluminescent substrate was removed and the membrane blotted to remove excess fluid. Positive spots were visualised following exposure to Hyperfilm ECL (Amersham Biosciences) for a series of short incubation times (5 seconds to 10 minutes).
The RhD, RhE and Rhe peptide mimotopes (see Tables 4 & 5) were synthesised by SPOTs and hybridisation of the membranes was undertaken with the appropriate antibodies (Table 1). FIGS. 7-10 show examples of peptide mimotopes reacting specifically with the antibody originally used in their selection.

[2] = tested on: anti-Fy^a monoclonal antibody (LM487); assay: Phage ELISA (capture ELISA) of phage-peptides on coated anti-Fy^a antibody; assay type: binding, Murine; settings: FIG. 3; 19 Fya phage-peptide clones (Fya1-18 & Fya25); OD450 greater than 0.1 considered positive
Description: (§3) The ability of the recovered phage-peptides to react with the antibodies used in their selection was confirmed by capture ELISA. A 10 μg/ml stock of appropriate monoclonal antibody was prepared in ELISA coating buffer and 150 μl aliquots were added to wells of an Immulon 4 ELISA plate, and then incubated overnight at 4° C. Unbound antibody was discarded and the wells were blocked with 350 μl of blocking buffer (0.1M NaHCO3/3% skimmed milk powder) for 1 hour at 4° C. The wells were washed three times with 300 μl TBS/0.5% Tween 20 and 100 μl of selected phage culture supernatants were added to appropriate wells for 1 hour at room temperature. Unbound phage were removed and the wells washed six times with 300 μl TBS/0.5% Tween 20. A 1:5000 dilution of horseradish peroxidase (HRP) conjugated anti-M13, secondary antibody was prepared in blocking buffer and 100 μl aliquots added to each well. Following incubation for 1 hour at room temperature the wells were washed six times with 300 μl TBS/0.5% Tween 20. To develop the reactions, a 200 μl aliquot of o-phenylenediamine dihydrochloride (OPD) substrate (Sigma) was added to each well. The absorbance at 450 nm was measured, following incubation at room temperature for 1 hour, by a microplate ELISA reader. An OD450 signal greater than 0.1 was considered positive.
Phage ELISA analysis of 19 “Fy^a” phage-peptide clones (Peptides Fya1-18 & Fya25; see Table 3 for sequence details) confirmed the binding specificity of the LM487 antibody for the Fy^a phage-peptides.

[3] = tested on: anti-Fy^a monoclonal antibody (LM487); assay: SPOTs membrane hybridisation with anti-Fy^a antibody; assay type: binding, Murine; settings: FIG. 5; Spots 1-37 = Fya 1-37; Spots 38-40 = Fya17, Fya25, Fya35; Spot 41 Cpep75, 42 Cpep76, 43 CPep118, 44 Fyb1; membranes hybridised in parallel with both antibodies
Description: as §1
A membrane was placed in a 50 ml Falcon tube and blocked overnight at 4° C. with gentle agitation in TBS/0.25% Tween 20/5% skimmed milk powder. A 2 μg/ml dilution of the primary (1°) antibody (monoclonal or polyclonal) was prepared in TBS/0.25% Tween20/5% skimmed milk powder before incubation with the membrane for 1 hour at room temperature on a spiral rotor. Following 4 washes, each for 5 minutes with 20 ml of TBS/0.25% Tween20, the membrane was incubated for 1 hour at room temperature with a 1/5000 dilution of the secondary (2°) antibody, prepared in TBS/0.25% Tween20/5% skimmed milk powder. […] Bound antibody was detected by chemiluminescence. […]

[4] = tested on: anti-RhE monoclonal antibody E0001 (HIRO17); assay: Biopanning of phage-peptide libraries with anti-RhE E0001; assay type: binding, Human; settings: IgG1 antibody
Source text: (§4) Three different phage libraries from New England Biolabs. (Ph.D. 7 and Ph.D. 12 displaying linear 7- and 12-mer peptides, respectively and Ph.D. C7C displaying 7-mer peptides constrained by a disulphide bridge at their termini) and a linear 15mer library (kindly provided by Prof. George P. Smith, University of Missouri) were used in biopanning experiments with 10 different monoclonal antibodies and a polyclonal preparation (Table 1).
(§5) For each target antibody/library combination, a separate well of a 96-well Immulon 4 flat-bottomed ELISA plate (Thermo Labsystems) was coated with 5 μg of antibody in 150 μl ELISA coating buffer (15 mM Na2CO3, 35 mM NaHCO3, pH9.6). Plates were sealed and incubated at 4° C. overnight. Unbound antibody was discarded and 350 μl of blocking buffer (0.1M NaHCO3/3% skimmed milk powder) was added to each well. Plates were sealed and incubated for 1 hour at 4° C. The blocking buffer was removed and the wells were washed six times with 300 μl TBS/0.1% Tween 20. Approximately 2×10^11 plaque forming units (pfu) in 100 μl TBS/0.1% Tween 20 were added to each well and the plates were incubated at room temperature for 1 hour. Wells were washed ten times with 300 μl TBS/0.1% Tween 20. […] The specificity of peptide-antibody binding was subsequently determined using both phage ELISA and SPOTs techniques.

[5] = tested on: anti-RhE monoclonal antibody E0002 (NaTH110-1D6); assay: Biopanning of phage-peptide libraries with anti-RhE E0002; assay type: binding, Human; settings: IgM antibody
Source text: as §4
For each target antibody/library combination, a separate well of a 96-well Immulon 4 flat-bottomed ELISA plate (Thermo Labsystems) was coated with 5 μg of antibody in 150 μl ELISA coating buffer (15 mM Na2CO3, 35 mM NaHCO3, pH9.6). Plates were sealed and incubated at 4° C. overnight. Unbound antibody was discarded and 350 μl of blocking buffer (0.1M NaHCO3/3% skimmed milk powder) was added to each well. Plates were sealed and incubated for 1 hour at 4° C. The blocking buffer was removed and the wells were washed six times with 300 μl TBS/0.1% Tween 20. Approximately 2×10^11 plaque forming units (pfu) in 100 μl TBS/0.1% Tween 20 were added to each well and the plates were incubated at room temperature for 1 hour. Wells were washed ten times with 300 μl TBS/0.1% Tween 20. Bound phage were eluted by incubation with 100 μl of 0.2M glycine-HCl/BSA, pH2.2 (1 mg/ml) for 10 minutes, then neutralised with 15 μl of 1M Tris-HCL (pH9.1). An aliquot of the Round 1 eluate was removed and titred. The remainder of the eluted phage were amplified by infection of E. coli ER2538 cells for 4.5 hours at 37° C. The cultures were centrifuged for 10 minutes at 10,000 rpm at 4° C. The supernatants were recovered, ⅙ volume PEG/NaCl (20% polyethylene glycol 8000; 2.5M NaCl) added, then incubated overnight at 4° C. The PEG-precipitated phage were centrifuged at 10,000 rpm for 15 minutes at 4° C. The supernatant was removed and the phage pellet resuspended in 200 μl TBS. […] The specificity of peptide-antibody binding was subsequently determined using both phage ELISA and SPOTs techniques.

[6] = tested on: anti-RhE monoclonal antibody E0003 (NaTH110-IH4); assay: Biopanning of phage-peptide libraries with anti-RhE E0003; assay type: binding, Human; settings: IgM antibody
Source text: as §4, §5

[7] = tested on: anti-Fy^b monoclonal antibody (LM447); assay: Phage ELISA (capture ELISA) of phage-peptides on coated anti-Fy^b antibody; assay type: binding, Murine; settings: FIG. 1, LM447 coated from 10 μg/ml stock, phage culture supernatant, OD450 greater than 0.1 considered positive, 20 phage assayed
Description: as §3
The phage ELISA results confirmed the binding of the anti-Fy^b monoclonal, LM447. A 10 μg/ml stock of this monoclonal antibody was prepared in ELISA coating buffer and 150 μl aliquots were added to wells of an Immulon 4 ELISA plate, and then incubated overnight at 4° C. Unbound antibody was discarded and the wells were blocked with 350 μl of blocking buffer for 1 hour at 4° C. The wells were washed three times with 300 μl TBS/0.5% Tween 20 and 100 μl of selected phage culture supernatants were added to appropriate wells for 1 hour at room temperature. Unbound phage were removed and the wells washed six times with 300 μl TBS/0.5% Tween 20. A 1:5000 dilution of horseradish peroxidase (HRP) conjugated anti-M13, secondary antibody was prepared in blocking buffer and 100 μl aliquots added to each well. Following incubation for 1 hour at room temperature the wells were washed six times with 300 μl TBS/0.5% Tween 20. To develop the reactions, 200 μl aliquots of o-phenylenediamine dihydrochloride (OPD) substrate (Sigma) was added to each well. The absorbance at 450 nm was measured following incubation at room temperature for 1 hour. The absorbance values at 450 nm, confirmed the binding of 14 (Peptides Fyb1, Fyb2, Fyb4-5, Fyb7-13, Fyb25, 27 & 28) of the 20 phage assayed (see FIG. 1).

[8] = tested on: anti-Fy^b monoclonal antibody (LM447); assay: SPOTs membrane hybridisation with anti-Fy^b antibody; assay type: binding, Murine; settings: FIG. 2; 20 Fyb peptides in duplicate; CPep75 (Spot 21) positive control; 2 μg/ml primary antibody; chemiluminescence
Description: as §1, §2

[9] = tested on: polyclonal anti-RhD preparation (Human Anti-D Ig); assay: SPOTs membrane hybridisation with polyclonal anti-RhD; assay type: binding; settings: FIG. 8; Spots 1-25 = RhD81-105; Spots 26-28 = RhD68, RhD71, RhD79; Spot 29 CPep75 and Spot 30 CPep76 negative controls
Description: as §1
as §2, with “minutes). […]” for “minutes).”

[10] = tested on: anti-RhD monoclonal antibody T10 (LHM76/55); assay: Biopanning of phage-peptide libraries with anti-RhD T10; assay type: binding, Human; settings: phage-peptide libraries; three rounds of panning
Source text: as §4
For each target antibody/library combination, a separate well of a 96-well Immulon 4 flat-bottomed ELISA plate (Thermo Labsystems) was coated with 5 μg of antibody in 150 μl ELISA coating buffer (15 mM Na2CO3, 35 mM NaHCO3, pH9.6). Plates were sealed and incubated at 4° C. overnight. Unbound antibody was discarded and 350 μl of blocking buffer (0.1M NaHCO3/3% skimmed milk powder) was added to each well. Plates were sealed and incubated for 1 hour at 4° C. The blocking buffer was removed and the wells were washed six times with 300 μl TBS/0.1% Tween 20. Approximately 2×10^11 plaque forming units (pfu) in 100 μl TBS/0.1% Tween 20 were added to each well and the plates were incubated at room temperature for 1 hour. Wells were washed ten times with 300 μl TBS/0.1% Tween 20. Bound phage were eluted by incubation with 100 μl of 0.2M glycine-HCl/BSA, pH2.2 (1 mg/ml) for 10 minutes, then neutralised with 15 μl of 1M Tris-HCL (pH9.1). An aliquot of the Round 1 eluate was removed and titred. The remainder of the eluted phage were amplified by infection of E. coli ER2538 cells for 4.5 hours at 37° C. The cultures were centrifuged for 10 minutes at 10,000 rpm at 4° C. The supernatants were recovered, ⅙ volume PEG/NaCl (20% polyethylene glycol 8000; 2.5M NaCl) added, then incubated overnight at 4° C. The PEG-precipitated phage were centrifuged at 10,000 rpm for 15 minutes at 4° C. The supernatant was removed and the phage pellet resuspended in 200 μl TBS. Two further rounds of panning were undertaken and approximately 2×10^11 pfu of the Round 2 or Round 3 amplified eluates were used as input phage. Round 3 eluates were titrated but not amplified. Individual plaques were amplified and subjected to PCR amplification, prior to DNA sequence analysis. The specificity of peptide-antibody binding was subsequently determined using both phage ELISA and SPOTs techniques.

Substance: RhE25: RhE peptide mimotope, Table 5 (GLSYYALITRYLGAA)
SPOTs binding of anti-RhE monoclonal antibody E0002 [1]: Specific binding

Substance: Fya14: Fya peptide mimotope, Table 3 (GDWLHW)
Phage ELISA binding of phage-peptide to anti-Fy^a antibody LM487 [2]: failed to bind

Substance: PDGDYGANLEAAAP [CPep118, 14-mer immunisation peptide used to generate the anti-Fy^a antibody, reference compound]
Reciprocal SPOTs hybridisation: binding of anti-Fy^a monoclonal antibody [3]: Fy^a-specificity

Substance: RhE19: RhE peptide mimotope, Table 5 (SFQDALLSRWYS)
SPOTs binding of anti-RhE monoclonal antibody E0002 [1]: Specific binding
Selection by biopanning with anti-RhE antibody E0001 [4]: selected
Selection by biopanning with anti-RhE antibody E0002 [5]: selected

Substance: RhE24: RhE peptide mimotope, Table 5 (GPSYYALITRYLGAA)
SPOTs binding of anti-RhE monoclonal antibody E0002 [1]: Specific binding
Selection by biopanning with anti-RhE antibody E0002 [5]: selected
Selection by biopanning with anti-RhE antibody E0003 [6]: selected

Substance: RhD68: RhD peptide mimotope, Table 4 (LDTYWYREHFRR)
SPOTs recognition by polyclonal anti-RhD [9]: recognised
Selection by biopanning with anti-RhD monoclonal antibody T10 [10]: identified through biopanning

Continued, in another order:

SPOTs binding of anti-RhE monoclonal antibody E0002 [1]: Specific binding
Substance: RhE18: RhE peptide mimotope, Table 5 (IPEEALRARFKT)
Selection by biopanning with anti-RhE antibody E0002 [5]: selected
Selection by biopanning with anti-RhE antibody E0003 [6]: selected

SPOTs binding of anti-Fy^b antibody LM447 to membrane-synthesised peptide [8]: failed to react
Substance: MVQELPFVLRSK [Fyb11]
Phage ELISA binding of phage-peptide to anti-Fy^b antibody LM447 (absorbance at 450 nm) ([7]; listed as Fybll): phage ELISA signals equally as strong as Peptides Fyb12 and Fyb13

SPOTs binding of anti-Fy^b antibody LM447 to membrane-synthesised peptide [8]: failed to react
Substance: MFQPTHWGTRLS [Fyb9]
Phage ELISA binding of phage-peptide to anti-Fy^b antibody LM447 (absorbance at 450 nm) [7]: phage ELISA signals equally as strong as Peptides Fyb12 and Fyb13
